{"source": "patent US12486274B2", "about": "“Substituted pyrazolo-pyrimidines and uses thereof” (Verge Analytics, Inc., priority 2020, dated 2025)", "biological_target": "Full length human recombinant PIKFYVE (Homo sapiens (Human), UniProt Q9Y2I7)", "sequence (Q9Y2I7 whole entry, the tested form may be a part)": "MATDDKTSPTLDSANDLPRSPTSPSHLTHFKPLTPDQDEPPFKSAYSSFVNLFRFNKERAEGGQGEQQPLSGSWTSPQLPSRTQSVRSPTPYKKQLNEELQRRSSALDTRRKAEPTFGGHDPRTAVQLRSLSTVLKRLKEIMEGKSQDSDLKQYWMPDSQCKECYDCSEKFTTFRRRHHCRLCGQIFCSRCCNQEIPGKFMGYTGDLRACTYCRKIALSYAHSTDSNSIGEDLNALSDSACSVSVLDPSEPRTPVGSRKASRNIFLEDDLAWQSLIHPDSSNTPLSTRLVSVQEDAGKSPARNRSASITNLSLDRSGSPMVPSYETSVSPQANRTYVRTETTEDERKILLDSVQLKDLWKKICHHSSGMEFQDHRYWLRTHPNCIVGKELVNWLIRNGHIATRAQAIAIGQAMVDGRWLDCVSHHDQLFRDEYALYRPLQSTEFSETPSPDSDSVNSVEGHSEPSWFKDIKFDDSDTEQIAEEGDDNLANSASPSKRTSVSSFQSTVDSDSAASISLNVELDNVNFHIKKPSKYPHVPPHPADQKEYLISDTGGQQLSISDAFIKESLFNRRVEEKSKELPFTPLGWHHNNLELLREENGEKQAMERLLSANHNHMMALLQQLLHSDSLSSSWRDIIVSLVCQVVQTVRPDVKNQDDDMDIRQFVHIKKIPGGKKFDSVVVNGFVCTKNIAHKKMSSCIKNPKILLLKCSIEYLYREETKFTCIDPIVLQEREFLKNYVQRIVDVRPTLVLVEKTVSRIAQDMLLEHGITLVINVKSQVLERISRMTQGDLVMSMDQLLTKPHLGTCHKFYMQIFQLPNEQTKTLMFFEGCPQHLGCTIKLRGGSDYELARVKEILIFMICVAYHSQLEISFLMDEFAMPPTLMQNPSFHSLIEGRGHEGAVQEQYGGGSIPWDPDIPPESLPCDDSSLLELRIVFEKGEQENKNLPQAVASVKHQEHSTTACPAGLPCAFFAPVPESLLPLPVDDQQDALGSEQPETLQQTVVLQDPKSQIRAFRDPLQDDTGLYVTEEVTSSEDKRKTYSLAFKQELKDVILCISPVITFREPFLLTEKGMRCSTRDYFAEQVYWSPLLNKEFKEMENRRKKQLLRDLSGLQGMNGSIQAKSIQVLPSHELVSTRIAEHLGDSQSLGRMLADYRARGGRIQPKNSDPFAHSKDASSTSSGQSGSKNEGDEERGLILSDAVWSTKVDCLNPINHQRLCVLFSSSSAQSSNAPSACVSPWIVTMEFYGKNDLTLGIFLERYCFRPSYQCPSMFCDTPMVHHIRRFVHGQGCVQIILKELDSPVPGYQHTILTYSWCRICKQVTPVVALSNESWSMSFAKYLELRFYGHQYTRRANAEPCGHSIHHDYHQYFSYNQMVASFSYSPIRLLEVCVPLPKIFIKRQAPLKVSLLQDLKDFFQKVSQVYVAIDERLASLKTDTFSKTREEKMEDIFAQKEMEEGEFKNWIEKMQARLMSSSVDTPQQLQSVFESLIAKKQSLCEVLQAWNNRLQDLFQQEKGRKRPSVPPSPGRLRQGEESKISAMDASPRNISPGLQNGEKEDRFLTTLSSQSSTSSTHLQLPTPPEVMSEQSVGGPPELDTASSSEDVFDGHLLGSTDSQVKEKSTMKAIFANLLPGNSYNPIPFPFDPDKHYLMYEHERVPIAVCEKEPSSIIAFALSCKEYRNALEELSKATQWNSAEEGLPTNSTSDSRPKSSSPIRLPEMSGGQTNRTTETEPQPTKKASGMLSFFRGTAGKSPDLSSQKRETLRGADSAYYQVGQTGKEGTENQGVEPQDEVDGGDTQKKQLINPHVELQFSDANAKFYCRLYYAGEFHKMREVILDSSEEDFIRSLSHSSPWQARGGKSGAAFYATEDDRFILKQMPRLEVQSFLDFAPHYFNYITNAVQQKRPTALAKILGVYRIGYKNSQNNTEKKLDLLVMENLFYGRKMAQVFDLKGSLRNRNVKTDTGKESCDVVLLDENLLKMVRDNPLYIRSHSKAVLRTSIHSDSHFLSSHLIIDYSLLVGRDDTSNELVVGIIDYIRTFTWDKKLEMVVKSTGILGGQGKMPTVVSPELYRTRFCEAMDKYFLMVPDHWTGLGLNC", "test": "Inhibition of PIKfyve (microfluidic electrophoresis kinase assay)", "assay_type": "biochemical", "conditions": "2 nM enzyme, PI3P/PS substrate, 3 h at room temperature, 12 concentrations", "procedure": "Full length human recombinant PIKFYVE expressed in baculovirus expression system as N-terminal GST-fusion protein (265 kDa) was obtained from Carna Biosciences (Kobe, Japan). The kinase substrate was prepared by mixing and sonicating fluorescently-labeled phosphatidylinositol 3-phosphate (PI3P) with phospho-L-serine (PS) at a 1:10 ratio in 50 mM HEPES buffer pH7.5.\nThe kinase reactions were assembled in 384-well plates (Greiner) in a total volume of […] as follows. Kinase protein was pre-diluted in an assay buffer comprising 25 mM HEPES, pH 7.5, 1 mM DTT, 2.5 mM MgCl2, and 2.5 mM MnCl2, and 0.005% Triton X-100, and dispensed into a 384-well plate (10 μL per well). Test compounds were serially pre-diluted in DMSO and added to the protein samples by acoustic dispensing (Labcyte Echo). The concentration of DMSO was equalized to 1% in all samples. All test compounds were tested at 12 concentrations. Apilimod was used as a reference compound and was tested in identical manner in each assay plate. Control samples (0%-inhibition, in the absence of inhibitor, DMSO only) and 100%-inhibition (in the absence of enzyme) were assembled in replicates of four and were used to calculate %-inhibition in the presence of compounds. The reactions were initiated by addition of 10 μL of 2× PI3P/PS substrate supplemented with ATP. The final concentration of enzyme was 2 nM, the final concentration of ATP was 10 mM, and the final concentration of PI3P/PS substrate was 1 μM (PI3P). The kinase reactions were allowed to proceed for 3 h at room temperature. Following incubation, the reactions were quenched by addition of […] of termination buffer (100 mM HEPES, pH 7.5, 0.01% Triton X-100, 20 mM EDTA). Terminated plates were analyzed on a microfluidic electrophoresis instrument (Caliper LabChip® 3000, Caliper Life Sciences/Perkin Elmer). The change in the relative fluorescence intensity of the PI (3) P substrate and PI (3,5) P product peaks was measured. The activity in each test sample was determined as the product to sum ratio (PSR): P/(S+P), where P is the peak height of the product, and S is the peak height of the substrate. Percent inhibition (Pinh) was determined using the following equation: Pinh=(PSR0% inh−PSRcompound)/(PSR0% inh−PSR100% inh)*100 in which PSRcompound is the product/sum ratio in the presence of compound, PSR0% inh is the product/sum ratio in the absence of compound, and the PSR100% inh is the product/sum ratio in the absence of the enzyme.", "note": "Counter-ions that a name gives are not always drawn.", "data": [{"smiles": "Cn1ccc(-c2cc3nc(-n4ccc(-c5ccccc5)n4)cc(N4CCOCC4)n3n2)n1", "note": "[Compound 66, 4-[2-(1-methylpyrazol-3-yl)-5-(3-phenylpyrazol-1-yl)pyrazolo[1,5-a]pyrimidin-7-yl]morpholine]", "values": [{"measurement": "IC50", "result": 104, "unit": "nM"}]}, {"smiles": "Cc1ccc(-c2cc(Nc3cc(N4CCOCC4)n4nc(-c5ccncc5)cc4n3)[nH]n2)cc1", "note": "[Example 1, 7-morpholino-2-(pyridin-4-yl)-N-(3-(p-tolyl)-1H-pyrazol-5-yl)pyrazolo[1,5-a]pyrimidin-5-amine, hydrogen chloride salt]", "values": [{"measurement": "IC50", "result": 2590, "unit": "nM"}]}, {"smiles": "c1ccc(-c2ccn(-c3cc(N4CCOCC4)n4nc(-c5cn[nH]c5)cc4n3)n2)cc1", "note": "[Compound 116, 4-[5-(3-phenylpyrazol-1-yl)-2-(1H-pyrazol-4-yl)pyrazolo[1,5-a]pyrimidin-7-yl]morpholine]", "values": [{"measurement": "IC50", "result": 80.9, "unit": "nM"}]}, {"smiles": "Cc1cccc(-c2cnn(-c3cc(N4CCOCC4)n4nc(C(=O)NC5CCOCC5)cc4n3)c2)c1", "note": "[Compound 56, 7-morpholino-5-[4-(m-tolyl)pyrazol-1-yl]-N-tetrahydropyran-4-yl-pyrazolo[1,5-a]pyrimidine-2-carboxamide]", "values": [{"measurement": "IC50", "result": 3420, "unit": "nM"}]}, {"smiles": "CC(C)NC(=O)c1cc2nc(-n3cc(-c4ccccc4)cn3)cc(N3CCOCC3)n2n1", "note": "[Compound 80, N-isopropyl-7-morpholino-5-(4-phenylpyrazol-1-yl)pyrazolo[1,5-a]pyrimidine-2-carboxamide]", "values": [{"measurement": "IC50", "result": 4390, "unit": "nM"}]}, {"smiles": "Cc1cnn(-c2cc(N3CCOCC3)n3nc(-c4ccncc4)cc3n2)c1", "note": "[Example 12, 4-[5-(4-methylpyrazol-1-yl)-2-(4-pyridyl)pyrazolo[1,5-a]pyrimidin-7-yl]morpholine]", "values": [{"measurement": "IC50", "result": "> 10000", "unit": "nM"}]}, {"smiles": "CCC(=O)NCc1cc2nc(-n3ccc(-c4ccccc4)n3)cc(N3CCOCC3)n2n1", "note": "[Compound 90]", "values": [{"measurement": "IC50", "result": 2160, "unit": "nM"}]}, {"smiles": "Nc1cc(-c2ccccc2)nn1-c1cc(N2CCOCC2)n2nc(-c3ccncc3)cc2n1", "note": "[Example 7, 1-(7-morpholino-2-(pyridin-4-yl)pyrazolo[1,5-a]pyrimidin-5-yl)-3-phenyl-1H-pyrazol-5-amine]", "values": [{"measurement": "IC50", "result": 38.4, "unit": "nM"}]}, {"smiles": "c1cc(-c2cc3nc(Nc4cc(-c5ccncc5)[nH]n4)cc(N4CCOCC4)n3n2)ccn1", "note": "[Example 6, 7-morpholino-2-(4-pyridyl)-N-[5-(4-pyridyl)-1H-pyrazol-3-yl]pyrazolo[1,5-a]pyrimidin-5-amine]", "values": [{"measurement": "IC50", "result": 6100, "unit": "nM"}]}, {"smiles": "Cc1cccc(-c2ccn(-c3cc(N4CCOCC4)n4nc(C(=O)NS(C)(=O)=O)cc4n3)n2)c1", "note": "[Example 35, N-(methylsulfonyl)-7-morpholino-5-(3-(m-tolyl)-1H-pyrazol-1-yl)pyrazolo[1,5-a]pyrimidine-2-carboxamide]", "values": [{"measurement": "IC50", "result": 422, "unit": "nM"}]}, {"smiles": "Cc1cccc(-c2cnn(-c3cc(N4CCOCC4)n4nc(-c5cnc(N)nc5)cc4n3)c2)c1", "note": "[Compound 60, 5-[7-morpholino-5-[4-(m-tolyl)pyrazol-1-yl]pyrazolo[1,5-a]pyrimidin-2-yl]pyrimidin-2-amine]", "values": [{"measurement": "IC50", "result": 6120, "unit": "nM"}]}, {"smiles": "Brc1cccc(-c2ccn(-c3cc(N4CCOCC4)n4nc(-c5cccnc5)cc4n3)n2)c1", "note": "[Compound 106, 4-[5-[3-(3-bromophenyl)pyrazol-1-yl]-2-(3-pyridyl)pyrazolo[1,5-a]pyrimidin-7-yl]morpholine]", "values": [{"measurement": "IC50", "result": 19.9, "unit": "nM"}]}, {"smiles": "c1cc(-c2cnn(-c3cc(N4CCOCC4)n4nc(-c5ccncc5)cc4n3)c2)ccn1", "note": "[Example 11, 4-[2-(4-pyridyl)-5-[4-(4-pyridyl)pyrazol-1-yl]pyrazolo[1,5-a]pyrimidin-7-yl]morpholine]", "values": [{"measurement": "IC50", "result": 2600, "unit": "nM"}]}, {"smiles": "Cc1cccc(-c2ccn(-c3cc(N4CCOCC4)n4nc(C(=O)N(C)C5CC5)cc4n3)n2)c1", "note": "[Example 26, N-cyclopropyl-N-methyl-7-morpholino-5-(3-(m-tolyl)-1H-pyrazol-1-yl)pyrazolo[1,5-a]pyrimidine-2-carboxamide]", "values": [{"measurement": "IC50", "result": 162, "unit": "nM"}]}, {"smiles": "Cc1cccc(-c2ccn(-c3cc(N4CCOCC4)n4nc(C(=O)N5CCN(C)CC5)cc4n3)n2)c1", "note": "[Example 32, (4-methylpiperazin-1-yl) (7-morpholino-5-(3-(m-tolyl)-1H-pyrazol-1-yl)pyrazolo[1,5-a]pyrimidin-2-yl)methanone]", "values": [{"measurement": "IC50", "result": 254, "unit": "nM"}]}, {"smiles": "c1ccc(-c2cnn(-c3cc(N4CCOCC4)n4nc(-c5cccnc5)cc4n3)c2)cc1", "note": "[Compound 79, 4-[5-(4-phenylpyrazol-1-yl)-2-(3-pyridyl)pyrazolo[1,5-a]pyrimidin-7-yl]morpholine]", "values": [{"measurement": "IC50", "result": 333, "unit": "nM"}]}, {"smiles": "Cc1cccc(-c2ccn(-c3cc(N4CCOCC4)n4nc(C(=O)N5CCCC5)cc4n3)n2)c1", "note": "[Example 29, (7-morpholino-5-(3-(m-tolyl)-1H-pyrazol-1-yl)pyrazolo[1,5-a]pyrimidin-2-yl) (pyrrolidin-1-yl)methanone]", "values": [{"measurement": "IC50", "result": 94.6, "unit": "nM"}]}, {"smiles": "c1ccc(-c2ccn(-c3cc(N4CCOCC4)n4nc(-c5cncnc5)cc4n3)n2)cc1", "note": "[Compound 69, 4-[5-(3-phenylpyrazol-1-yl)-2-pyrimidin-5-yl-pyrazolo[1,5-a]pyrimidin-7-yl]morpholine]", "values": [{"measurement": "IC50", "result": 752, "unit": "nM"}]}, {"smiles": "Cc1cccc(-c2ccn(-c3cc(N4CCOCC4)n4nc(-c5cccnc5)cc4n3)n2)n1", "note": "[Compound 108, 4-[5-[3-(6-methyl-2-pyridyl)pyrazol-1-yl]-2-(3-pyridyl)pyrazolo[1,5-a]pyrimidin-7-yl]morpholine]", "values": [{"measurement": "IC50", "result": 1350, "unit": "nM"}]}, {"smiles": "Nc1cccc(-c2cc3nc(-n4ccc(-c5ccccc5)n4)cc(N4CCOCC4)n3n2)n1", "note": "[Compound 109, 6-[7-morpholino-5-(3-phenylpyrazol-1-yl)pyrazolo[1,5-a]pyrimidin-2-yl]pyridin-2-amine]", "values": [{"measurement": "IC50", "result": 278, "unit": "nM"}]}, {"smiles": "Cn1cc(-c2cc3nc(-n4ccc(-c5ccccc5)n4)cc(N4CCOCC4)n3n2)cn1", "note": "[Compound 115, 4-[2-(1-methylpyrazol-4-yl)-5-(3-phenylpyrazol-1-yl)pyrazolo[1,5-a]pyrimidin-7-yl]morpholine]", "values": [{"measurement": "IC50", "result": 62.4, "unit": "nM"}]}, {"smiles": "Cc1cccc(-c2ccn(-c3cc(N4CCOCC4)n4nc(C(=O)N[C@H]5CCCN(C)C5)cc4n3)n2)c1", "note": "[Compound 53, N-[(3S)-1-methyl-3-piperidyl]-7-morpholino-5-[3-(m-tolyl)pyrazol-1-yl]pyrazolo[1,5-a]pyrimidine-2-carboxamide]", "values": [{"measurement": "IC50", "result": 26.8, "unit": "nM"}]}, {"smiles": "COCCNC(=O)c1cc2nc(-n3ccc(-c4cccc(C)c4)n3)cc(N3CCOCC3)n2n1", "note": "[Example 23, N-(2-methoxyethyl)-7-morpholino-5-(3-(m-tolyl)-1H-pyrazol-1-yl)pyrazolo[1,5-a]pyrimidine-2-carboxamide]", "values": [{"measurement": "IC50", "result": 81.5, "unit": "nM"}]}, {"smiles": "Cc1cccc(-c2ccn(-c3cc(N4CCOCC4)n4nc(-c5cc(C)n(CCN(C)C)n5)cc4n3)n2)n1", "note": "[Compound 94, N,N-dimethyl-2-[5-methyl-3-[5-[3-(6-methyl-2-pyridyl)pyrazol-1-yl]-7-morpholino-pyrazolo[1,5-a]pyrimidin-2-yl]pyrazol-1-yl]ethanamine]", "values": [{"measurement": "IC50", "result": 4390, "unit": "nM"}]}, {"smiles": "Cc1cccc(-c2ccn(-c3cc(N4CCOCC4)n4nc(C(=O)N5CC6(COC6)C5)cc4n3)n2)c1", "note": "[Example 45, (7-morpholino-5-(3-(m-tolyl)-1H-pyrazol-1-yl)pyrazolo[1,5-a]pyrimidin-2-yl) (2-oxa-6-azaspiro[3.3]heptan-6-yl)methanone]", "values": [{"measurement": "IC50", "result": 105, "unit": "nM"}]}, {"smiles": "C[C@H](NC(=O)c1cc2nc(-n3ccc(-c4ccccc4)n3)cc(N3CCOCC3)n2n1)C1CC1", "note": "[Compound 75, N-[(1S)-1-cyclopropylethyl]-7-morpholino-5-(3-phenylpyrazol-1-yl)pyrazolo[1,5-a]pyrimidine-2-carboxamide]", "values": [{"measurement": "IC50", "result": 334, "unit": "nM"}]}, {"smiles": "Cc1cccc(-c2ccn(-c3cc(N4CCOCC4)n4nc(C(=O)NC5COC5)cc4n3)n2)c1", "note": "[Example 42, 7-morpholino-N-(oxetan-3-yl)-5-(3-(m-tolyl)-1H-pyrazol-1-yl)pyrazolo[1,5-a]pyrimidine-2-carboxamide]", "values": [{"measurement": "IC50", "result": 63.3, "unit": "nM"}]}, {"smiles": "Cc1ccccc1-c1cc(N)n(-c2cc(N3CCOCC3)n3nc(-c4ccncc4)cc3n2)n1", "note": "[Example 8, 1-(7-morpholino-2-(pyridin-4-yl)pyrazolo[1,5-a]pyrimidin-5-yl)-3-(o-tolyl)-1H-pyrazol-5-amine]", "values": [{"measurement": "IC50", "result": 6690, "unit": "nM"}]}, {"smiles": "COc1cccc(-c2ccn(-c3cc(N4CCOCC4)n4nc(-c5cccnc5)cc4n3)n2)c1", "note": "[Compound 107, 4-[5-[3-(3-methoxyphenyl)pyrazol-1-yl]-2-(3-pyridyl)pyrazolo[1,5-a]pyrimidin-7-yl]morpholine]", "values": [{"measurement": "IC50", "result": 7.1, "unit": "nM"}]}, {"smiles": "Cc1cccc(-c2ccn(-c3cc(N4CCOCC4)n4nc(-c5nccs5)cc4n3)n2)c1", "note": "[Compound 111, 4-[5-[3-(m-tolyl)pyrazol-1-yl]-2-thiazol-2-yl-pyrazolo[1,5-a]pyrimidin-7-yl]morpholine]", "values": [{"measurement": "IC50", "result": 2.7, "unit": "nM"}]}]}
